Laboratory results as given in patent publication US8952163B2, “Substituted hydroxamic acids and uses thereof” (Millennium Pharmaceuticals, Inc., priority 2010, dated 2015).

Molecular target: T1, purified human HDAC6 (Homo sapiens, UniProt Q9UBN7)
T1 construct: purchased BPS Bioscience 5006
T1 sequence (Q9UBN7 1-1215): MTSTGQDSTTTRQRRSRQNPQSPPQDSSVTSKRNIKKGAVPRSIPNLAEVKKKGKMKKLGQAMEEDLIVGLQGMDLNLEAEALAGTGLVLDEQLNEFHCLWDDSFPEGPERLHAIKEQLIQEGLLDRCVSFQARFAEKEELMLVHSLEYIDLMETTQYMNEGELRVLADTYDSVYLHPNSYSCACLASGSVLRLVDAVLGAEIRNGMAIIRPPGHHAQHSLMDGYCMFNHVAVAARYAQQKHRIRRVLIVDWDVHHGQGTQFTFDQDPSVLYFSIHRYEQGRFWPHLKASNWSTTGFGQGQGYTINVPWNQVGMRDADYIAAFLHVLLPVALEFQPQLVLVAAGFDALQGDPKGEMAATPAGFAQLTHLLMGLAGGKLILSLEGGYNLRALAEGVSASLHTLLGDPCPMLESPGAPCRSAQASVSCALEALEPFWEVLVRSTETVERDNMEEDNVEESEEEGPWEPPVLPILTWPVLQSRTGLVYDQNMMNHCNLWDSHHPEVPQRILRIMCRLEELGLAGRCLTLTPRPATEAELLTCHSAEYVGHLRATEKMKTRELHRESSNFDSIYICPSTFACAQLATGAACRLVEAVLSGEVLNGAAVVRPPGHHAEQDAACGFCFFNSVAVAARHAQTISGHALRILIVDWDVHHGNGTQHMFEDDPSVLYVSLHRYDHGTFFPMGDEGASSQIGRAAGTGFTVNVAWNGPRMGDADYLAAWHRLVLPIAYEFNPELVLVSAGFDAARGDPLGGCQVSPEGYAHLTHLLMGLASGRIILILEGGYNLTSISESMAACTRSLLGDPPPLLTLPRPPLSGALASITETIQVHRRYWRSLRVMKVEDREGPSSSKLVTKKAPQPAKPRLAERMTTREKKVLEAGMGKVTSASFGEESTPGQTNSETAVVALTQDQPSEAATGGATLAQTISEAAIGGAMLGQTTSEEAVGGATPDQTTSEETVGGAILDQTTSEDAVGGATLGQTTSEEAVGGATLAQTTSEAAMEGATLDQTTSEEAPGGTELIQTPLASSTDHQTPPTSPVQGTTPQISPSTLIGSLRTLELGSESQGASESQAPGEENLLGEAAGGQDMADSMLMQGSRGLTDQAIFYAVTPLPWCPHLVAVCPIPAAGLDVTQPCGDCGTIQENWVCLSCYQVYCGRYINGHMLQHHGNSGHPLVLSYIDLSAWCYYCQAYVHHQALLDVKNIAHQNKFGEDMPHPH
Assay: HDAC6 Enzyme Assay
Type: biochemical
Conditions: test compound at 1.235 μM; substrate Ac-Arg-Gly-Lys(Ac)-AMC, 1 hour at 30° C.; read-out: Percent Inhibition at 1.235 μM
Description: To measure the inhibition of HDAC6 activity, purified human HDAC6 (BPS Bioscience; Cat. No. 5006) is incubated with substrate Ac-Arg-Gly-Lys(Ac)-AMC peptide (Bachem Biosciences; Cat. No. I-1925) for 1 hour at 30° C. in the presence of test compounds or vehicle DMSO control. The reaction is stopped with the HDAC inhibitor trichostatin A (Sigma; Cat. No. T8552) and the amount of Arg-Gly-Lys-AMC generated is quantitated by digestion with trypsin (Sigma; Cat. No. T1426) and subsequent measurement of the amount of AMC released using a fluorescent plate reader (Pherastar, BMG Technologies) set at Ex 340 nm and Em 460 nm. Concentration response curves are generated by calculating the fluorescence increase in test compound-treated samples relative to DMSO-treated controls, and percentage inhibition values at a single concentration or enzyme inhibition (IC50) values are determined from those curves. One skilled in the art will appreciate that the values generated either as percentage inhibition at a single concentration or IC50 values are subject to experimental variation.

inhibition at 1.235 µM	Structure (SMILES)
50.4%	CC(C)(C)c1ccccc1NC(=O)N1CCc2nc(C(=O)NO)ccc2C1 [Compound I-40, N^6-(2-tert-butylphenyl)-N^2-hydroxy-7,8-dihydro-1,6-naphthyridine-2,6(5H)-dicarboxamide]
97.5%	O=C(NO)c1cnc2c(c1)CN(C(=O)c1ccc(-c3ccccn3)s1)CC2 [Compound I-42, N-hydroxy-6-[(5-pyridin-2-yl-2-thienyl)carbonyl]-5,6,7,8-tetrahydro-1,6-naphthyridine-3-carboxamide]
85%	CC(C)(C)C(=O)N1CCc2ncc(C(=O)NO)cc2C1 [Compound I-30, 6-(2,2-dimethylpropanoyl)-N-hydroxy-5,6,7,8-tetrahydro-1,6-naphthyridine-3-carboxamide]
